Experimental data taken from US20150018411A1, “COMPOUNDS AS PPAR BETA/DELTA INHIBITORS FOR TREATING PPAR BETA/DELTA-MEDIATED DISEASES” (PHILIPPS-UNIVERSITAT MARBURG, priority 2011, published 2015).
“Also recorded” adds a separate entry of the source.

Experiments:
ANGPTL4 gene expression = ANGPTL4 gene expression (qPCR) in WPMY-1 myofibroblasts; type: cell-based, human; details: WPMY-1, 1 μM, 24 hours, compared to DMSO-treated cells
Experimental: FIG. 5: Influence of the substances of this invention comparative compound (CC) 2, compound 1, compound 5, compound 2 and compound 3 on ANGPTL4 gene expression. • (A) Comparison of relative ANGPTL4 expression, (B) mean inhibitory concentration of substances of this invention. (A) Human myofibroblasts (WPMY-1) are treated for 24 hours with the substances of this invention (1 μM), then RNA is isolated, the cDNA synthesized and analyzed by qPCR, normalized to L27 gene expression. (B) Titration of the effect of substances of this invention on the endogenous ANGPTL4 expression in WPMY-1 cells (left) or peritoneal mouse macrophages (right) after cells have been treated for six hours with the substances of this invention compound 1 and compound 2, respectively; RNA isolation, cDNA synthesis and qPCR as described for (A). The relative expression is calculated in relation to DMSO-treated cells. All values are average values of triplicates (+1-standard deviation). Asterisks (***, **, *) indicate significant differences to DMSO-treated cells (***: p<0.001 after t-test; *: p <0.05).
The influence of substances of this invention on PPAR-beta/delta regulated genes like for example ANGPTL4 which codes for the angiopoietin-like protein ANGPTL4 is assessed in different cells with a confluence of 70% to 80% in a 6-well cell culture plate. For this purpose, cultivated human myofibroblasts (WPMY-1), peritoneal mouse macrophages or cells of the human breast cancer cell line MDA-MB-231 are treated for 24 hours with 1 μM of the substances of this invention. Cells of the breast cancer cell line are in addition stimulated for 6 hours with TGF-beta2 (2 ng/ml) which is commercially available. Subsequently, RNA is isolated from the cells by procedures known to the expert and analyzed by quantitative PCR (qPCR, real time qPCR, RT-qPCR) also known to those skilled in the art. […]

PPAR beta/delta = target: T1, PPAR beta/delta (Homo sapiens, UniProt Q03181); assay: Agonist-induced transcriptional activity, luciferase reporter in WPMY-1 cells; type: cell-based; details: human WPMY-1 myofibroblasts, 500 nM substance, 500 nM agonist L165041
T1 construct: expressed in transfected cells; host or cells: WPMY-1 human myofibroblasts, transient transfection with PEI
T1 sequence (Q03181 1-441): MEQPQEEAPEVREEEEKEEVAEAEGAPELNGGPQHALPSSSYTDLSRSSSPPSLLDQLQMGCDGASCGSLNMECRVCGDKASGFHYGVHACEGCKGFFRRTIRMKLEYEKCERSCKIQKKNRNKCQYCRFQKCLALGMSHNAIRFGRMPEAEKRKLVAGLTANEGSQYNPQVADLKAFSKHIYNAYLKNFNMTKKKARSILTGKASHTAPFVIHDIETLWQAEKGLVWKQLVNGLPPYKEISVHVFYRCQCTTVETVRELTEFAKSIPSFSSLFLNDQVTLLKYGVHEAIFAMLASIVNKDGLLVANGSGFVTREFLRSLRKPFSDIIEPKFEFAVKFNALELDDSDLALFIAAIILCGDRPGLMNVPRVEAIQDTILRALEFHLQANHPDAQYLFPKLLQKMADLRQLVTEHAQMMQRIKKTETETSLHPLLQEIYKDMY
Experimental: FIG. 4: Effect of the substances of this invention comparative compound (CC) 2, compound 1, compound 5, compound 2 and compound 3 on the agonist-induced transcriptional activity of PPAR subtypes alpha (A), beta/delta (B) and gamma (C). • WPMY-1 cells are transiently transfected with a luciferase reporter plasmid. Four hours after transfection, cells are treated for 48 hours with the respective antagonist (500 nM), followed by a treatment with 300 nM of PPAR alpha agonist GW7647 (A), 500 nM of PPAR beta/delta agonist L165041 (B) or 300 nM of PPAR gamma agonist GW1929 (C). The relative induction is represented by the luciferase activity of the agonist-treated transfected cells in relation to solvent-treated transfected cells. Asterisks (**, *) indicate significant differences to untreated cells (after t-test; **: p<0.01; *: p<0.05). GW7647 is commercially available from Sigma-Aldrich (Steinheim, Germany). L165041 and GW1929 can be obtained from Biozol (Eching, Germany).
D) The influence of substances of this invention on the agonist-induced transcriptional activity of PPAR subtypes alpha, beta/delta or gamma is determined in WPMY-1 myofibroblasts transfected transiently with a luciferase reporter plasmid (LexA system) using polyethyleneimine (PEI) according to a method known to the expert. As agonists, substances GW7647 for PPAR alpha or L165041 for PPAR beta/delta or GW1929 for PPAR gamma known to the expert are used. WPMY-1 myofibroblast cells are initially cultured for example in a 12-well plate in DMEM medium (DMEM: Dulbecco's Modified Eagle Medium) according to a method known to the expert and to a confluence of 70% to 80%, and subsequently transfected with 2.5 μg of plasmid-DNA containing the luciferase reporter plasmid, expression plasmids for the respective PPAR subtypes and the Renilla-luciferase plasmid pRL-SV40 (Promega, Mannheim, Germany), and 2.5 μl PEI (1:1000 dilution, pH 7). Four hours after transfection, the cells are treated for 48 hours with 500 nM of the substances of this invention, and 24 later with 300 nM (GW7647 or GW1929, respectively) or 500 nM (L165041) of the respective agonist at 37° C. and 5% CO2 in an incubator. The luciferase assay is performed 48 hours after the first treatment according to the commercial method of the “dual-well-system” (pjk GmbH, Kleinblittersdorf, Germany), whereby for a normalization, not only the luciferase-, but also the Renilla activity is measured. Cells are initially lysed for this measurement, and 20 μl of the lysate is transferred into a white 96-well plate (Fisher Scientific, Hamburg, Germany). […] Mean values and standard deviation are calculated from values of three independent measurements.

GST-PPAR beta/delta LBD [1] = target: T2, GST-PPAR beta/delta LBD (Homo sapiens, UniProt Q03181); assay: Ligand-induced binding of corepressor peptide SMRT-ID2, TR-FRET; type: biochemical; details: concentration dependent
T2 construct: GST-PPAR beta/delta LBD (GST=glutathione S-transferase); purchased Invitrogen, Darmstadt, Germany
T2 sequence (Q03181 211-439 limits assumed): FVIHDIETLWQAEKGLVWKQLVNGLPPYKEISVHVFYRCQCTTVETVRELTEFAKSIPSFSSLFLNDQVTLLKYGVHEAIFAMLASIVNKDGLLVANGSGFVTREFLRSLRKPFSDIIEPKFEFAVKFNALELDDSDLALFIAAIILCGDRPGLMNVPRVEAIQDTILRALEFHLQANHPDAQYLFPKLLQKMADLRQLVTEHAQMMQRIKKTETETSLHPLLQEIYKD
Experimental: FIG. 2: Induction of corepressor peptide binding to GST-PPAR beta/delta ligand binding domain (LBD) in vitro in dependency of the concentration of the substances of this invention comparative compound (CC) 2, compound 1 (A), compound 2 (B), compound 3 (C), compound 4 (D) and compound 5 (E). The interaction of fluorescein-labeled SMRT-ID2 peptide with recombinant GST-PPAR beta/delta LBD bound to a terbium-labeled anti-GST antibody is determined by TR-FRET analysis. Shown is the ratio of fluorescence intensity at 520 nm (fluorescein emission, excited by terbium emission) and 495 nm (terbium emission). All data points represent average values of triplicates (+/−standard deviation).
B) The ligand-induced binding of the commercially available fluorescein-labeled corepressor peptide SMRT-ID2 ([…]) (Invitrogen, Darmstadt, Germany) to GST-PPAR beta/delta is for example measured by TR-FRET analysis using a terbium-labeled anti-GST antibody in a VICTOR3V Multilabel Counter (WALLAC 1420; PerkinElmer Life and Analytical Sciences, Rodgau, Germany). The measurement is performed in a buffer composed of 100 mM KC, 20 mM Tris pH 7.9, 0.01% Triton X100 and 1 μg/μL bovine serum albumin.

GST-PPAR beta/delta LBD [2] = target: T2, GST-PPAR beta/delta LBD; assay: Competitive in vitro ligand binding, TR-FRET, displacement of Fluormone Pan-PPAR-Green; details: fluorescence ratio 520 nm/495 nm
Experimental: FIG. 1: Competitive in vitro ligand binding to PPAR beta/delta. • The displacement of ligand Fluormone® Pan-PPAR Green from recombinant GST-PPAR beta/delta ligand binding domain (LBD) by the substances of the present invention comparative compound (CC) 2, compound 1 (A), compound 2 (B), and compound 3 (C), compound 4 (D), compound 5 (E) is determined by TR-FRET analysis. Shown is the ratio of fluorescence intensity at 520 nm (fluorescein emission, excited by terbium emission) and 495 nm (terbium emission). All data points represent average values of triplicates (+/−standard deviation).
A) Competitive ligand-binding of the substances of this invention was measured in vitro using time-resolved fluorescence resonance energy transfer (TR-FRET) by competition with the commercially available fluorescent Fluormone® Pan-PPAR-Green for binding to the fusion protein GST-PPAR beta/delta LBD (GST=glutathione S-transferase; LBD=ligand binding domain) (Invitrogen, Darmstadt, Germany) in a VICTOR3V Multilabel Counter (WALLAC 1420; PerkinElmer Life and Analytical Sciences, Rodgau, Germany). The measurement was performed in 100 mM KC, 20 mM Tris pH 7.9, 0.01% Triton X100 and 1 μg/μL bovine serum albumin. GST is known to the expert in the field as suitable fusion partner for proteins. For this purpose, the ratio of fluorescence intensities at 520 nm (fluorescein emission excited by terbium emission) and at 495 nm (terbium emission) is determined.

With `COC(=O)c1sccc1S(=O)(=O)Nc1ccc(N2CCOCC2)cc1OC` [comparison compound 2, methyl 3-(N-(2-methoxy-4-morpholinophenyl)sulfamoyl)thiophene-2-carboxylate, reference compound] the “reduction of relative expression of the ANGPTL4 gene” value (ANGPTL4 gene expression) was “up to 10%”.

With `COC(=O)c1sccc1S(=O)(=O)Nc1ccc(NCCC(C)C)cc1OC` [compound 3, methyl 3-(N-(4-(isopentylamino)-2-methoxyphenyl)sulfamoyl)thiophene-2-carboxylate] the “agonist-induced transcriptional activity of PPAR beta/delta (luciferase induction)” value (PPAR beta/delta) was “inhibited in a PPAR subtype-specific manner”, the “induction of interaction of PPAR beta/delta LBD with corepressor peptide SMRT-ID2” value (GST-PPAR beta/delta LBD [1]) was “clearly demonstrate the interaction; also recorded: induce” and the “competition with Fluormone Pan-PPAR-Green for binding to GST-PPAR beta/delta LBD” value (GST-PPAR beta/delta LBD [2]) was “significant competition efficacy; also recorded: significant competition efficiency”.

For `COC(=O)c1sccc1S(=O)(=O)Nc1ccc(NCc2ccccc2)cc1OC` [compound 4, methyl 3-(N-(4-(benzylamino)-2-methoxyphenyl)sulfamoyl)thiophene-2-carboxylate], the “induction of interaction of PPAR beta/delta LBD with corepressor peptide SMRT-ID2” value (GST-PPAR beta/delta LBD [1]) was “clearly demonstrate the interaction; also recorded: induce” and the “competition with Fluormone Pan-PPAR-Green for binding to GST-PPAR beta/delta LBD” value (GST-PPAR beta/delta LBD [2]) was “significant competition efficacy; also recorded: significant competition efficiency”.
